Reference: patent US7534766B2, “Glucuronide metabolites and epimers thereof of tigecycline” (Wyeth, priority 2004, dated 2009)
Like-named read-outs stand apart in the source and are kept apart here.

What was measured:
[1] = male, human, in vivo
Procedure: (§1) An open-label, inpatient, multiple-dose tigecycline, single-dose [^14C]tigecycline metabolic disposition and mass balance study was performed in six healthy male volunteers. The clinical protocol called for twelve subjects. Of these twelve, six received the radioactive dose (subjects 1, 4, 5, 6, 7, and 8 with subject 8 later dropping out of the study.) Eligible subjects were selected based on inclusion/exclusion criteria, medical history, physical examination and additional procedures outlined in the study protocol. Each subject received a 100 mg loading dose on the morning of Day 1, followed by a 50 mg maintenance dose every 12 hours for an additional 5 doses. On the morning of study Day 4, six subjects received a single 50 mg dose of [^14C]tigecycline (50 μCi). Each tigecycline dose was administered via a 30-minute intravenous infusion.
(§2) Serum samples were collected for metabolite profiling prior to tigecycline dosing and 1, 4, 8, 24 and 48 hours following the [^14C]-labeled dose. For metabolite profiling, urine samples were collected at 0-4, 4-8, 8-24 and 24-48 hours and fecal samples were collected up to 48 hours following the [^14C]-labeled dose. Serum and urine samples, and fecal homogenates were shipped on dry ice to the Biotransformation Division of Drug Safety and Metabolism, Wyeth Research, Collegeville, Pa. The details of the sample collection and sample storage are described in the mass balance portion of the study. The 24-48 hour urine and fecal samples for subject #6 were incomplete since the subject withdrew from the study. While samples from this subject were used for metabolite profiling, the samples were not included in the mass balance calculations.
Individual fecal sample homogenates, prepared from each fecal sample collected up to 48 hours following the [^14C]-labeled tigecycline dose, that contained greater than 8000 dpm/g were analyzed for metabolite profiles. The preparation of the fecal sample homogenates is described in detail in the mass balance portion of the study. Briefly, fecal samples were homogenized with 3 to 4 volumes of ice-cold water by weight at ABC Laboratories (Columbia, Mo.) and shipped frozen to the Biotransformation Division of Drug Safety and Metabolism, Wyeth Research, Collegeville, Pa. For the extraction of radioactivity, fecal homogenates were thawed on ice and aliquots (approximately 1 g) transferred to 15 mL tubes. Three volumes of acetone were added and the samples mixed for 1 minute using a multi-tube vortex mixer. Samples were centrifuged for 15 minutes at 2500 rpm and 4° C. in a Sorvall Super T21 centrifuge. The supernatant was transferred to a fresh tube and the pellet re-suspended with 1 mL of water and 80 μL of 0.5 M EDTA, and re-extracted as described above. The pellet was re-extracted in this manner a total of three times and the supernatants pooled. The supernatant was evaporated to dryness under a stream of nitrogen using a Turbovap Model LV. The residue was re-suspended in 500 μL of water and centrifuged for 10 minutes at 14,000 rpm and room temperature using a Model 5415C Eppendorf centrifuge. The supernatant was transferred to an HPLC vial, assayed for radioactivity and for metabolite profiles using HPLC with radioactivity detection. Selected samples were also analyzed by LC/MS.
HPLC analyses were performed using a Waters 2695 Alliance Separation Module (Waters Corp., Milford, Mass.), a Waters Model 2487 dual wavelength UV absorbance detector, set to monitor 350 nm, and was in-line with a Gilson 215 liquid handler (Gilson, Middleton, Wis.) equipped to collect fractions at 20 second intervals.

[2] = in vivo
Procedure: as §1, §2
Individual serum samples, collected 1, 4 and 8 hours following the [^14C]-labeled tigecycline dose, were analyzed for metabolite profiles. […] In order to minimize the sample volume, each serum sample was divided into two samples of equal volume (approximately 9 Ml each) and extracted and analyzed separately. […] The residue was reconstituted in 300 μL of acetonitrile/water (1:9), centrifuged for 10 minutes at 14,000 rpm and room temperature using a Model 5415C Eppendorf centrifuge (Brinkmann Instruments, Westbury, N.Y.) and assayed for radioactivity and by HPLC. Selected samples were also analyzed by LC/MS.
HPLC analyses were performed using a Waters 2695 Alliance Separation Module (Waters Corp., Milford, Mass.), a Waters Model 2487 dual wavelength UV absorbance detector, set to monitor 350 nm, and was in-line with a Gilson 215 liquid handler (Gilson, Middleton, Wis.) equipped to collect fractions at 20 second intervals. Fractions were collected into 96-well deep well Luma plates and analyzed using TopCount NXT. […]

Row | SMILES | percent of the fecal radioactivity [1] | Estimated Concentrations in fecal homogenate ([1]; 24.2 h) | Relative Distribution (%) of radioactivity in extracted fecal homogenate ([1]; 24.2 h) [%] | Estimated Concentrations in fecal homogenate ([1]; 24.6 h) | Relative Distribution (%) of radioactivity in extracted fecal homogenate ([1]; 24.6 h) [%] | Estimated Concentrations in fecal homogenate ([1]; 25.2 h) | Relative Distribution (%) of radioactivity in extracted fecal homogenate ([1]; 25.2 h) [%] | Estimated Concentrations in fecal homogenate ([1]; 29.8 h) | Relative Distribution (%) of radioactivity in extracted fecal homogenate ([1]; 29.8 h) [%] | Estimated Concentrations in fecal homogenate ([1]; 30 h) | Relative Distribution (%) of radioactivity in extracted fecal homogenate ([1]; 30 h) [%] | Estimated Concentrations in fecal homogenate ([1]; 32 h) | Relative Distribution (%) of radioactivity in extracted fecal homogenate ([1]; 32 h) [%] | Estimated Concentrations in fecal homogenate ([1]; 34.2 h) | Relative Distribution (%) of radioactivity in extracted fecal homogenate ([1]; 34.2 h) [%] | Estimated Concentrations in fecal homogenate ([1]; 41.8 h) | Relative Distribution (%) of radioactivity in extracted fecal homogenate ([1]; 41.8 h) [%] | percent of the radioactivity in serum ([2]; male, human) | also measured
1 | CN(C)c1cc(NC(=O)CNC(C)(C)C)c(O)c2c1C[C@H]1C[C@H]3C(N(C)C)C(O[C@@H]4O[C@H](C(=O)O)[C@@H](O)[C@H](O)[C@H]4O)=C(C(N)=O)C(=O)[C@@]3(O)C(O)=C1C2=O (stereo in doubt) [Metabolite M7, tigecycline glucuronide] | 10-26% | 0.51 mg-Tigecycline Equivalents/Collection | 23.5 | 0.40 mg-Tigecycline Equivalents/Collection | 9.8 | 1.1 mg-Tigecycline Equivalents/Collection | 10.4 | 2.6 mg-Tigecycline Equivalents/Collection | 21.6 | 1.2 mg-Tigecycline Equivalents/Collection | 13.3 | 0.49 mg-Tigecycline Equivalents/Collection | 10.4 | 1.1 mg-Tigecycline Equivalents/Collection | 26.3 | 1.8 mg-Tigecycline Equivalents/Collection | 21.3 | – | –
2 | CC(C)(C)NCC(=O)O [Metabolite M3a, t-butylaminoacetic acid] | 4-14% | (0.30) mg-Tigecycline Equivalents/Collection | 13.9 | (0.25) mg-Tigecycline Equivalents/Collection | 6.2 | (0.81) mg-Tigecycline Equivalents/Collection | 7.5 | (0.49) mg-Tigecycline Equivalents/Collection | 4.1 | (0.55) mg-Tigecycline Equivalents/Collection | 5.9 | (0.20) mg-Tigecycline Equivalents/Collection | 4.2 | (0.17) mg-Tigecycline Equivalents/Collection | 3.9 | (0.56) mg-Tigecycline Equivalents/Collection | 6.7 | 10-20% | –
3 | CN(C)c1cc(NC(=O)CNC(C)(C)C)c(O)c2c1C[C@H]1C[C@H]3[C@@H](N(C)C)C(O[C@@H]4O[C@H](C(=O)O)[C@@H](O)[C@H](O)[C@H]4O)=C(C(N)=O)C(=O)[C@@]3(O)C(O)=C1C2=O [Metabolite M6, epimer of tigecycline glucuronide] | up to 9% | 0.13 mg-Tigecycline Equivalents/Collection | 5.8 | – | – | 0.44 mg-Tigecycline Equivalents/Collection | 4.1 | 0.82 mg-Tigecycline Equivalents/Collection | 6.8 | 0.52 mg-Tigecycline Equivalents/Collection | 5.6 | 0.14 mg-Tigecycline Equivalents/Collection | 3.0 | 0.32 mg-Tigecycline Equivalents/Collection | 7.5 | 0.75 mg-Tigecycline Equivalents/Collection | 8.9 | less than 4% | detection in serum samples [2]: approximately half the serum samples
4 | CN(C)c1cc(NC(=O)CNC(C)(C)C)c(O)c2c1C[C@H]1C[C@H]3[C@H](N(C)C)C(O)=C(C(N)=O)C(=O)[C@@]3(O)C(O)=C1C2=O [Tigecycline] | 28-51% | 0.97 mg-Tigecycline Equivalents/Collection | 44.9 | 2.0 mg-Tigecycline Equivalents/Collection | 47.7 | 4.3 mg-Tigecycline Equivalents/Collection | 39.9 | 4.7 mg-Tigecycline Equivalents/Collection | 39.1 | 4.5 mg-Tigecycline Equivalents/Collection | 48.3 | 2.4 mg-Tigecycline Equivalents/Collection | 50.7 | 1.4 mg-Tigecycline Equivalents/Collection | 32.8 | 2.4 mg-Tigecycline Equivalents/Collection | 28.1 | – | percent of fecal radioactivity after correcting for the epimer formed during the extraction process [1]: 39-66%; percent of serum radioactivity after correcting for the epimer formed during the extraction ([2]; male, human): 59-80%
